# Assay results published in patent publication US20250129023A1, “[…]” (Reunion Neuroscience, Inc., priority 2020, published 2025).
# Structures can show the parent of a compound that is named as a salt.
# How the values were obtained:
# [1] = Pharmacokinetics and subjective effects in human volunteers; type: in vivo; conditions: standardized questionnaires
# Protocol: The compound from example 6 (N,N diisopropyltryptamine-4-glutarate) is administered to human volunteers by subcutaneous injection of a sterile solution (1 mg/ml) at a dosage of 0.1-0.6 mg/kg. Blood samples are taken at 5, 15, 30, 45, 60, 120, 240 and 480 min and 24 h. Samples are analyzed by LCMS for drug and prodrug. Subjective effects are measured using standardized questionnaires.
# The compound from example 2 (4-hemisuccinate of 4-OH-DiPT) is administered to human volunteers by oral ingestion of a tablet containing 50 mg of the prodrug. Blood samples are taken at 5, 15, 30, 45, 60, 120, 240 and 480 min and 24 h. Samples are analyzed by LCMS for drug and prodrug. Subjective effects are measured using standardized questionnaires.
# rats = assay: Head Twitch Response (HTR) / Wet Dog Shakes by visual observation; type: in vivo; conditions: after injection of the compound from example 9, highest intensity at the Tmax of the PK profile
# Protocol: In some cases, Head Twitch Response (HTR) or Wet Dog Shakes (WDS) were recorded by visual observation and counting of the relevant muscle twitches.
# Solubility in water = type: physicochemical; conditions: HCl salt solid
# Protocol: The structure was confirmed by NMR. Purity was determined by HPLC (>97%). The solid was resuspended in […] HCl-dioxane to form the HCl salt which was filtered, washed with ether and dried. Yield (>95%, purity >95%; DSC endotherm 174C). The solid could be dissolved in water up to 50 mg/ml and lyophilized to form a white “cake”.
# [2] = system: human patient suffering depression; assay: Use in treatment of a human patient suffering depression; type: in vivo; conditions: i.m. or s.c. injection (ca. 25 mg) or oral (ca. 50-200 mg)
# Protocol: The compound of example 6 (N,N diisopropyltryptamine-4-glutarate) is administered by i.m. or s.c. injection (ca. 25 mg; 0.4-0.5 mg/kg) to a human patient suffering depression, or by oral administration (ca. 50-200 mg; 0.8-3.2 mg/kg) with tablets. In another example of use, the compound of example 6 (4-hemiglutarate of 4-OH-DiPT) is similarly administered. Prior to the dosing session, the patient is qualified for the experience by measurement of depression scores, screened for exclusions (e.g. history of psychoses, unfavorable heart condition, pregnancy) and finally, the patient is encouraged to formulate an intent for the dosing session. Dosing is performed in a quiet clinic setting with the patient resting comfortably in an inclined, but unrestrained, position to avoid falls. The patients' eyes are covered, and music is applied. The drug is administered. After 4 h, the patient reports no longer feeling the effects of the drug and is asked to sit up while under supervision. Feeling normal, the patient is allowed to stand (supervised) and feeling in control, is allowed to move around. One hour later, the patient is discharged. Later by 24 h, the patient returns to the clinic to meet with a psychotherapist to recount the session. The patient records a depression score via questionnaire and is again discharged. […]
# [3] = Prodrug hydrolysis in mouse plasma at 37° C; type: in vitro ADME; conditions: 1.0 ug/mL
# Protocol: (§1) Pooled mixed gender human plasma (2 ml), mouse plasma, rat plasma and dog plasma were equilibrated at 37° C. The compound of example 9 was added so as to achieve a concentration of 1.0 ug/mL. Aliquots (50 uL) of the mixture were withdrawn at timed intervals (0, 0.004, 0.5, 1, 2 and 4 hours) and quenched with 200 uL of methanol/acetonitrile (1:1). The samples were vortexed and stored at −80° C. until analysis. Assays were done in triplicate. Control samples were done in phosphate buffered saline (PBS, pH 7.4) and simulated gastric fluid (SGF, pH 2). Analysis of samples as performed by HPLC-MS to determine the amounts of prodrug and drug in each sample tested. Table 1 provides the mean concentrations of prodrug remaining at different time points of the experiment.
# [4] = Prodrug hydrolysis in rat plasma at 37° C; type: in vitro ADME; conditions: 1.0 ug/mL
# Protocol: as §1
# [5] = Prodrug hydrolysis in dog plasma at 37° C; type: in vitro ADME; conditions: 1.0 ug/mL
# Protocol: as §1
# [6] = Prodrug hydrolysis in pooled mixed gender human plasma at 37° C; type: in vitro ADME; conditions: 1.0 ug/mL
# Protocol: as §1
# [7] = Control hydrolysis in simulated gastric fluid (SGF, pH 2); type: physicochemical
# Protocol: as §1
# [8] = Control hydrolysis in phosphate buffered saline (PBS); type: physicochemical; conditions: PBS (pH 7)
# Protocol: as §1
# [9] = Pharmacokinetics in rats (i.v. and s.c. injection, LCMS of drug and prodrug); type: in vivo; conditions: rodent, 1.4-2 mg/kg
# Protocol: The compound from example 9 was administered to rats by injection (intravenous and subcutaneous) with a sterile solution (2 mg/ml) at a rate of 1.4-2 mg/kg. Blood samples were taken at 15, 30, 45, 60, 120, 240 min and 360 min and analyzed by LCMS for drug and prodrug. PK profile for the prodrug and active species were obtained and relative bioavailability was determined for each of the routes of administration.
# Pharmacokinetics of 1.34 mg/ml 4-HO-DiPT HCl administered by intravenous or subcutaneous injection were performed in parallel under identical conditions as above. […] Immediately obvious is the increased variability with the active species when administered s.c. and intravenous administrations.
compound,measurement,setting,value
"CC(C)N(CCc1c[nH]c2cccc(OC(=O)CCC(=O)O)c12)C(C)C [Example 2, 4-hemisuccinate of 4-hydroxy-diisopropyltryptamine (4-OH-DiPT)]",Subjective effects (intensity of psychoactivity),[1]; oral tablet 50 mg,correlates with blood levels
"CC(C)N(CCc1c[nH]c2cccc(O)c12)C(C)C [Example 4-HO-DIPT, 4-hydroxy-N,N-diisopropyltryptamine]",Intensity of the HTR versus plasma concentration,rats,proportional to the plasma concentration
"CC(C)N(CCc1c[nH]c2cccc(OC(=O)CCCC(=O)O)c12)C(C)C [Example 6, N,N diisopropyltryptamine-4-glutarate]",Solubility in water,Solubility in water,up to 50 mg/ml
same,Subjective effects (intensity of psychoactivity),"[1]; subcutaneous injection, 0.1-0.6 mg/kg",correlates with blood levels
same,Time after which the patient reports no longer feeling the effects of the drug,[2],4 h
"CC(C)N(CCc1c[nH]c2cccc(OC(=O)CCCC(=O)O)c12)C(C)C [Example 9, HCl salt of N,N diisopropyltryptamine-4-glutarate]",Percentage of remaining prodrug,[3]; time 0 h,100%
same,Percentage of remaining prodrug,[3]; time 0.004 h,0%
same,Percentage of remaining prodrug,[3]; time 0.5 h,0%
same,Percentage of remaining prodrug,[3]; time 1 h,0%
same,Percentage of remaining prodrug,[3]; time 2 h,0%
same,Percentage of remaining prodrug,[3]; time 4 h,0%
same,Percentage of remaining prodrug,[4]; time 0 h,100%
same,Percentage of remaining prodrug,[4]; time 0.004 h,0%
same,Percentage of remaining prodrug,[4]; time 0.5 h,0%
same,Percentage of remaining prodrug,[4]; time 1 h,0%
same,Percentage of remaining prodrug,[4]; time 2 h,0%
same,Percentage of remaining prodrug,[4]; time 4 h,0%
same,Percentage of remaining prodrug,[5]; time 0 h,100%
same,Percentage of remaining prodrug,[5]; time 0.004 h,100%
same,Percentage of remaining prodrug,[5]; time 0.5 h,87%
same,Percentage of remaining prodrug,[5]; time 1 h,79%
same,Percentage of remaining prodrug,[5]; time 2 h,64%
same,Percentage of remaining prodrug,[5]; time 4 h,39%
same,Percentage of remaining prodrug,[6]; time 0 h,100%
same,Percentage of remaining prodrug,[6]; time 0.004 h,100%
same,Percentage of remaining prodrug,[6]; time 0.5 h,3.0%
same,Percentage of remaining prodrug,[6]; time 1 h,0.23%
same,Percentage of remaining prodrug,[6]; time 2 h,0%
same,Percentage of remaining prodrug,[6]; time 4 h,0%
same,Percentage of remaining prodrug,[7]; time 0 h,100%
same,Percentage of remaining prodrug,[7]; time 0.004 h,100%
same,Percentage of remaining prodrug,[7]; time 0.5 h,100%
same,Percentage of remaining prodrug,[7]; time 1 h,100%
same,Percentage of remaining prodrug,[7]; time 4 h,101%
same,Percentage of remaining prodrug,[8]; time 0 h,100%
same,Percentage of remaining prodrug,[8]; time 4 h,93%
same,Prodrug in blood samples after injection,[9],prodrug was not observed
